Three molecules from ChEMBL document CHEMBL1128027, “Total synthesis of a novel benz[A]anthracycline analog of the antitumor agent 4-demethoxydaunorubicin” (Bioorg Med Chem Lett, 1994) can be followed below.

This assay concerns CCRF-CEM. Kind of assay: Cytotoxicity tested in vitro against T-lymphoid leukemic cell line. As to conditions: Homo sapiens. The assay is classed as functional, cell-based.
`CC(=O)[C@@]1(O)Cc2c3c(c(O)c(O)c2[C@H](OC2CC(N)C(O)C(C)O2)C1)C(=O)c1ccccc1C3=O` (stereo partly drawn) came in with an IC50 of 1000 nM. That is a single-digit micromolar value.

In turn, `CC(=O)[C@]1(O)Cc2c3c(c(O)c(O)c2[C@@H](OC2CC(N)C(O)C(C)O2)C1)C(=O)c1ccccc1C3=O` (stereo partly drawn) showed an IC50 of 1000 nM.

In turn, `COc1cccc2c1C(=O)c1c(O)c3c(c(O)c1C2=O)C[C@@](O)(C(=O)CO)C[C@@H]3O[C@H]1C[C@H](N)[C@H](O)[C@H](C)O1` [DOXORUBICIN] showed an IC50 of 20 nM. Compared with the last molecule, the IC50 is about 50-fold lower.

Usually IC50 stands for the concentration that inhibits the measured activity by half.
